# Measured values from PMC9650711, “Hydroxyl-Rich Hydrophilic Endocytosis-Promoting Peptide with No Positive Charge” (Journal of the American Chemical Society, 2022).
# Key:
# Format in all cases: cell-based, human
# [1] = test system: RB-EPP6 uptake in U87 cells; assay: Endocytosis inhibitors treatment, RB-EPP6 uptake by flow cytometry; details: inhibitor 1 h, then 500 nM RB-EPP6 1 h; for inhibition of RB-EPP6 uptake: flow cytometry median intensity; for effect on RB-EPP6 uptake (cholesterol extraction / binding): flow cytometry
# Description: (§1) Flow cytometry experiments
# (§2) To perform flow cytometry experiments, a NovoCyte flow cytometer (NovoExpress) was used.
# (§3) Quantification of fluorescence intensity was achieved using the Novoxpress software. Fifty thousand cells were analyzed for each condition. A green fluorescent dye used for DNA staining, YOYO, was included in all the flow cytometry experiments, serving as a cell live/dead indicator.
# (§4) For the YOYO-only group, the cells were treated with trypsin for 5-10 min and subsequently fixed in a 1.5 mL centrifuge tube using 4% paraformaldehyde at room temperature for 15 min. Then, fixed cells were washed with PBS once and were permeabilized using 90% MeOH on ice for 15 min. For all conditions, cells were incubated with YOYO in a phenol-free medium for half an hour, and then were centrifuged to remove the YOYO solution and resuspended in a fresh phenol-free medium before performing flow cytometry.
# For general incubation, 300 k U87 cells were seeded in a 35×10 mm culture dish and incubated overnight under normal culturing conditions. Stock solutions of Dye-EPPs were made in DMSO to reach a concentration of 500 μM. Fresh cell culture medium was used to dilute the stock solution to 500 nM. Cells were incubated with RB-EPPs for desired time periods, followed by a one-time wash with phenol-free fresh culture medium before measurements. […]
# (§5) Endocytosis inhibitors treatment
# U87 cells were incubated with different endocytosis inhibitors for 1 h. Then, the media was replaced with fresh media containing 500 nM of RB-EPP6. After 1 h, a trypsin-EDTA solution (0.05%, Sigma) was added to detach the cells. The cells were collected by centrifugation and resuspended in phenol-free media. […]
# Stock solutions of trackers for mitochondria, lysosome, and ER were diluted with cell culture medium into 100 nM, 500 nM, and 4 μM, respectively. RB-EPP6 was added to each working solution at 500 nM. U87 cells were incubated with the trackers and RB-EPP6 for 1 h and then washed once before confocal imaging.
# U87 cells [2] = assay: Uptake and nuclear accumulation of TO- and EB-labeled EPPs, confocal; details: confocal imaging, TO conjugates 500 nM, EB-EPP6 2 ug/mL or 6 hr
# Description: Confocal imaging experiments
# To image the cells, a Zeiss 880 inverted confocal laser scanning microscope (Carl Zeiss, Germany) was used. Image acquisition and analyses were carried out using the manufacturer’s software (ZEN, Carl Zeiss). Quantification of fluorescence intensity in single cells was performed using Fiji […]
# as §1, §2, §3
# […]
# 2 μL of RB-EPP (in DMSO) was added to the solution at a concentration of 500 μM. […] Samples were collected from both phases and quantified by Analytical HPLC separately. […]
# [3] = test system: RB-EPP6 uptake in U87 cells; assay: FIBCD1 competition assay with CSA, RB-EPP6 uptake by flow cytometry; details: 500 nM RB-EPP6 together with CSA, 1 h
# Description: experiment. Poly-A selective RNA-seq libraries were prepared using the NEB NextUltra II kit (New England Biolabs) and sequenced on an Illumina NextSeq500 with 2×75 pair-end reads. The obtained sequencing data was preprocessed using fastp, aligned using STAR, and counted using featureCounts. Differentially expressed genes were identified using DESeq2. The sequence data and analysis reports are deposited in the GEO repository (Accession # GSE202764) […]
# U87 cells were incubated with 500 nM RB-EPP6 and YOYO, together with chondroitin sulfate (CSA) in complete media. After 1 h, trypsin was used to detach the cells. Cell pellets were collected by centrifugation. Fresh phenol-free medium was added to each condition. […]
# Human FIBCD1 cDNA with an MYC-DDK tag was ordered from Origene (#RC206180) and was expressed using the mammalian expression system kit ExpiCHOTM (#A29133) as generally described by MAN0014337. […] The obtained full-length FIBCD1 was quantified using BCA.
# Fluorescence polarization (FP) assay
# Solutions of RB-EPPs (in 1% BSA/PBST) were added to different concentrations of full-length FIBCD1 (in 1% BSA/PBST). […] The solutions were incubated at room temperature for 30 minutes on an orbital shaker, and the fluorescence polarization values were quantified using a BioTek Synergy H1 plate reader, with an FP filter set (excitation 530/25, emission 590/35). […]
# U87 cells [4] = assay: Resazurin assay, cell viability
# Description: Time-dependent uptake experiment
# U87 cells were incubated with RB-EPP6 at 500 nM for 1 h. After washing with fresh medium once, the cells were kept in the 5% CO2 incubator at 37 °C for desired time durations before […]
# Temperature-dependent uptake experiment
# U87 cells were kept in a 4 °C cold room for half an hour. After that, cells were incubated with RB-EPP 6 at 500 nM at 4 °C. Cells in the control group were maintained and incubated at 37 °C. After 1 h, cells were washed with fresh medium once before confocal imaging.
# All the RB-EPPs were diluted in PBS to 100 μM. 700 μL of the testing peptides were added to the apical chamber of a Corning BioCoat Pre-coated PAMPA Plate. 200 μL PBS was added to the basolateral chamber. The plate was kept at 37 °C with 5% CO2 for 5 h, after which 80 μL samples were collected from each chamber for RB fluorescence intensity reading using the Synergy H1 […]
# as §5
# U87 cells were incubated with different endocytosis inhibitors for 1 h. Then, the media was replaced with fresh media containing 500 nM of RB-EPP6. After 1 h, a trypsin-EDTA solution (0.05%, Sigma) was added to detach the cells. […]
# Resazurin was dissolved in DI water at a stock concentration of 6 mg/mL. […] The fluorescence intensity of the samples was recorded by a plate reader at 532 nm excitation and 585 nm emission wavelengths. […]
# [5] = test system: RB-EPP6 uptake in U87 cells; assay: Heparin-binding assay, RB-EPP6 uptake by flow cytometry; details: heparin sulfate 10-200 μg/mL 30 min, then with 500 nM RB-EPP6 1 h
molecule,measurement,setting,value
O=C(N/N=C/c1ccc(O)c(O)c1)c1cc2ccccc2cc1O [Dynasore],inhibition of RB-EPP6 uptake,[1],86%
"CC[n+]1c(-c2ccccc2)c2cc(N)ccc2c2ccc(N)cc21 [EB, ethidium bromide]",uptake / intracellular localisation,U87 cells [2],did not show any uptake
O=C1NC(=NS(=O)(=O)c2cccc3ccccc23)S/C1=C\c1ccc(Br)cc1 [Pitstop 2],inhibition of RB-EPP6 uptake,[1],9%
C=C1[C@@H](C)[C@H]2[C@H](Cc3ccccc3)NC(=O)[C@]23[C@H](OC(C)=O)/C=C/[C@@](C)(O)C(=O)[C@@H](C)C/C=C/[C@H]3[C@@H]1O [cytochalasin D],inhibition of RB-EPP6 uptake,[1],38%
CCCCC[C@@H](O)[C@H]1C(=O)O[C@H](C)[C@@H](O)/C=C/C=C/C=C/C=C/C=C(\C)[C@@H](O)C[C@H](O)C[C@H](O)C[C@H](O)C[C@H](O)C[C@H](O)C[C@@H]1O [filipin],effect on RB-EPP6 uptake (cholesterol extraction / binding),[1],did not inhibit
c1ccc2c(c1)Nc1ccccc1S2 [phenothiazine],inhibition of RB-EPP6 uptake,[1],no inhibition
COC[C@H]1OC(=O)c2coc3c2[C@@]1(C)C1=C(C3=O)[C@@H]2CCC(=O)[C@@]2(C)C[C@H]1OC(C)=O [wortmannin],inhibition of RB-EPP6 uptake,[1],48%
chondroitin sulfate A [CSA],effect on RB-EPP6 uptake (competitive uptake),[3],inhibit RB-EPP6 uptake in a concentration-dependent manner
same,effect on cell viability,U87 cells [4],without affecting cell viability
heparin sulfate,effect on RB-EPP6 uptake,[5],did not affect
methyl-β-cyclodextrin,effect on RB-EPP6 uptake (cholesterol extraction / binding),[1],did not inhibit
